Experimental data: the supplement of paper PMC10307832

Columns and labels:
Assay in all cases: relative viability (nuclei count vs DMSO), 5 days (fraction); higher = more cells survive
Adavosertib + Pemetrexed = compound: C=CCn1c(=O)c2cnc(Nc3ccc(N4CCN(C)CC4)cc3)nc2n1-c1cccc(C(C)(C)O)n1 [Adavosertib] + Nc1nc2[nH]cc(CCc3ccc(C(=O)N[C@@H](CCC(=O)O)C(=O)O)cc3)c2c(=O)[nH]1 [Pemetrexed] (partner 0.2 µM)
Summary of the method: (§1)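 Five library-drug doses in √10 steps were combined with a fixed anchor-drug dose, or a single drug was given alone, by pin tool to lung cancer cell lines in 1536-well plates the day after seeding. Nuclei were stained and counted after 5 days. Relative viability is the nuclei count in treated wells over that in vehicle wells, taken as the median of duplicate plates.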

Adavosertib + Decitabine = compound: C=CCn1c(=O)c2cnc(Nc3ccc(N4CCN(C)CC4)cc3)nc2n1-c1cccc(C(C)(C)O)n1 [Adavosertib] + Nc1ncn([C@H]2C[C@H](O)[C@@H](CO)O2)c(=O)n1 [Decitabine] (partner 2 µM)
Summary of the method: as §1

Nelarabine = compound: COc1nc(N)nc2c1ncn2[C@@H]1O[C@H](CO)[C@@H](O)[C@@H]1O [Nelarabine]
Summary of the method: (§2)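 For viability, nuclei in each treated well were divided by nuclei in vehicle wells and the median across plates was taken. Lung cancer cell lines in 1536-well plates were pinned with five library-drug doses (not always all listed) spaced by √10, cultured 5 days without medium change, and imaged at 4× after Hoechst staining, with plates passing only at control CV below 25% and at least one doubling.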

Adavosertib = compound: C=CCn1c(=O)c2cnc(Nc3ccc(N4CCN(C)CC4)cc3)nc2n1-c1cccc(C(C)(C)O)n1 [Adavosertib]
Summary of the method: as §2

EMC-BAC-2
relative viability (Adavosertib + Pemetrexed; first compound 0.03162 µM): 0.399 | relative viability (Adavosertib + Pemetrexed; first compound 0.1 µM): 0.357 | relative viability (Adavosertib + Pemetrexed; first compound 0.3162 µM): 0.334 | relative viability (Adavosertib + Decitabine; first compound 0.03162 µM): 0.997 | relative viability (Adavosertib + Decitabine; first compound 0.1 µM): 1.08 | relative viability (Adavosertib + Decitabine; first compound 0.3162 µM): 1.04 | relative viability (Nelarabine; 0.01 µM): 1.01 | relative viability (Nelarabine; 0.03162 µM): 1.22 | relative viability (Nelarabine; 0.1 µM): 1.08 | relative viability (Nelarabine; 0.3162 µM): 0.968 | relative viability (Nelarabine; 1 µM): 1.07 | relative viability (Adavosertib; 0.03162 µM): 1.02 | relative viability (Adavosertib; 0.1 µM): 1.08 | relative viability (Adavosertib; 0.3162 µM): 0.919
